Laboratory results reported in ChEMBL document CHEMBL5214895, “3-Hydroxy-propanamidines, a New Class of Orally Active Antimalarials Targeting Plasmodium falciparum” (J Med Chem, 2021).
pIC50: −log10 of the molar value. The source made the active and inactive calls. The rule behind the calls is not given here.

Tests used:
Plasmodium falciparum [1] = experiment: Antiplasmodial activity against multidrug resistant asexual blood stage Plasmodium falciparum Dd2 assessed as inhibition of parasite growth incubated for […] by HRP2-ELISA; type: functional, organism-based
Plasmodium berghei [2] = experiment: Antimalarial activity against Plasmodium berghei infected in mouse assessed as mean survival days at 50 mg/kg, po administered for 4 times starting from 4 to 72 hrs and monitered for 30 days (reference value: 4 days); type: functional; details: time 30 day
Plasmodium berghei [3] = experiment: Antimalarial activity against Plasmodium berghei infected in mouse assessed as reduction in parasitemia in blood at 50 mg/kg, po administered for 4 times starting from 4 to 72 hrs and measured after 96 hrs post infection (reference value: 0%); type: functional; design: scale not given: the % may be the effect or the level left
[4] = AUC(0 to t) in mouse infected with Plasmodium berghei at 30 mg/kg, po administered as single dose and measured for 24 hrs by LC-MS/MS analysis; type: ADME, organism-based; design: dose 30 mg/kg, time 24 hrs, route po; details: in vivo
[5] = Metabolic stability in human liver microsomes assessed as intrinsic clearance; type: ADME, Microsome
Plasmodium falciparum [6] = experiment: Induction of drug resistance in Plasmodium falciparum Dd2 clone FL2-C4 assessed as fold increase in IC50 incubated for 72 hrs by SYBR green-based assay; type: functional
[7] = Half life in mouse infected with Plasmodium berghei at 3 mg/kg, po administered as single dose and measured for 24 hrs by LC-MS/MS analysis; type: ADME, organism-based; details: in vivo
Plasmodium falciparum [8] = experiment: Inhibition of hemozoin formation in sorbitol-synchronized early ring stage plasmodium falciparum NF54 trophozoites assessed as reduction in hemozoin level at 2.5 times IC50 incubated for 28 hrs by flow cytometry analysis; type: functional
[9] = Observed AUC(0 to infinity) in mouse infected with Plasmodium berghei at 10 mg/kg, po administered as single dose and measured for 24 hrs by LC-MS/MS analysis; type: ADME, organism-based; design: dose 10 mg/kg, time 24 hrs, route po; details: in vivo
Plasmodium berghei [10] = experiment: Antimalarial activity against Plasmodium berghei infected in mouse assessed as reduction in parasitemia in blood at 30 mg/kg, po administered for 4 times starting from 4 to 72 hrs and measured after 96 hrs post infection (reference value: 0%); type: functional; design: scale not given: the % may be the effect or the level left
Plasmodium berghei [11] = experiment: Antimalarial activity against Plasmodium berghei infected in mouse assessed as reduction in parasitemia in blood at 3 mg/kg, po administered for 4 times starting from 4 to 72 hrs and measured after 96 hrs post infection (reference value: 0 %); type: functional; design: scale not given: the % may be the effect or the level left
[12] = Tmax in mouse infected with Plasmodium berghei at 3 mg/kg, po administered as single dose and measured for 24 hrs by LC-MS/MS analysis; type: ADME, organism-based; details: in vivo
Plasmodium falciparum [13] = experiment: Antiplasmodial activity against hyper mutating Plasmodium falciparum Dd2 harboring proofreading-deficient DNA polymerase delta assessed as inhibition of parasite growth incubated for 72 hrs by SYBR green-based assay; type: functional, organism-based; details: Dd2, 72 h
Plasmodium falciparum [14] = experiment: Antiplasmodial activity against sorbitol-synchronized early ring stage plasmodium falciparum NF54 trophozoites assessed as inhibition of parasite growth incubated for 72 hrs by SYBR green-based parasite susceptibility assay; type: functional, organism-based; details: NF54, 72 h
[15] = Cytotoxicity against human HepG2 cells assessed as inhibition of cell growth incubated for 24 hrs by neutral red dye based analysis; type: toxicity
[16] = Metabolic stability in human liver microsomes assessed as parent compound remaining at 2 uM incubated for 40 mins in presence of NADPH by LC-MS/MS analysis; type: ADME, Microsome; details: read-out: Stability
[17] = Cmax in mouse infected with Plasmodium berghei at 30 mg/kg, po administered as single dose and measured for 24 hrs by LC-MS/MS analysis; type: ADME, organism-based; design: dose 30 mg/kg, time 24 hrs, route po; details: in vivo
[18] = biological target: Voltage-gated inwardly rectifying potassium channel KCNH2 (Homo sapiens, UniProt Q12809); experiment: Inhibition of hERG by fluorescence polarization assay; type: toxicity
[19] = Half life in mouse infected with Plasmodium berghei at 10 mg/kg, po administered as single dose and measured for 24 hrs by LC-MS/MS analysis; type: ADME, organism-based; details: in vivo
[20] = Cytotoxicity against HEK293 cells assessed as inhibition of cell growth incubated for 24 hrs by neutral red dye based analysis; type: toxicity; details: human
[21] = Observed AUC(0 to infinity) in mouse infected with Plasmodium berghei at 3 mg/kg, po administered as single dose and measured for 24 hrs by LC-MS/MS analysis; type: ADME, organism-based; design: dose 3 mg/kg, time 24 hrs, route po; details: in vivo
[22] = Cmax in mouse infected with Plasmodium berghei at 3 mg/kg, po administered as single dose and measured for 24 hrs by LC-MS/MS analysis; type: ADME, organism-based; design: time 24 hrs, dose 3 mg/kg, route po; details: in vivo
Plasmodium berghei [23] = experiment: Antimalarial activity against Plasmodium berghei infected in mouse assessed as mean survival days at 30 mg/kg, po administered for 4 times starting from 4 to 72 hrs and monitered for 30 days (reference value: 4 days); type: functional; details: time 30 day
Plasmodium falciparum [24] = experiment: Inhibition of hemozoin formation in sorbitol-synchronized early ring stage plasmodium falciparum NF54 trophozoites assessed as increase in free heme level at 2.5 times IC50 incubated for 28 hrs by flow cytometry analysis; type: functional
[25] = Elimination half life in mouse infected with Plasmodium berghei at 3 mg/kg, po administered as single dose and measured for 24 hrs by LC-MS/MS analysis; type: ADME, organism-based; details: in vivo, read-out: beta t1/2 (converted)
Plasmodium falciparum [26] = experiment: Induction of drug resistance in Plasmodium falciparum Dd2 clone FL3-C3 assessed as fold increase in IC50 incubated for 72 hrs by SYBR green-based assay; type: functional
[27] = Half life in mouse infected with Plasmodium berghei at 30 mg/kg, po administered as single dose and measured for 24 hrs by LC-MS/MS analysis; type: ADME, organism-based; details: in vivo
[28] = Observed AUC(0 to infinity) in mouse infected with Plasmodium berghei at 30 mg/kg, po administered as single dose and measured for 24 hrs by LC-MS/MS analysis; type: ADME, organism-based; design: dose 30 mg/kg, time 24 hrs, route po; details: in vivo
[29] = Cmax in mouse infected with Plasmodium berghei at 10 mg/kg, po administered as single dose and measured for 24 hrs by LC-MS/MS analysis; type: ADME, organism-based; design: dose 10 mg/kg, time 24 hrs, route po; details: in vivo
[30] = Selectivity index, ratio of IC50 for cytotoxicity against human HepG2 cells to IC50 for antiplasmodial activity against chloroquine-sensitive asexual blood stage Plasmodium falciparum 3D7; type: toxicity, cell-based; details: read-out: Ratio IC50
[31] = Elimination half life in mouse infected with Plasmodium berghei at 30 mg/kg, po administered as single dose and measured for 24 hrs by LC-MS/MS analysis; type: ADME, organism-based; details: in vivo, read-out: beta t1/2 (converted)
[32] = AUC(0 to t) in mouse infected with Plasmodium berghei at 3 mg/kg, po administered as single dose and measured for 24 hrs by LC-MS/MS analysis; type: ADME, organism-based; design: dose 3 mg/kg, time 24 hrs, route po; details: in vivo
Plasmodium berghei [33] = experiment: Antimalarial activity against Plasmodium berghei infected in mouse assessed as reduction in parasitemia in blood at 10 mg/kg, po administered for 4 times starting from 4 to 72 hrs and measured after 96 hrs post infection (reference value: 0%); type: functional; design: scale not given: the % may be the effect or the level left
Plasmodium falciparum [34] = experiment: Antiplasmodial activity against multidrug resistant asexual blood stage Plasmodium falciparum Dd2-B2 assessed as inhibition of parasite growth incubated for 72 hrs by SYBR green-based assay; type: functional, organism-based; details: Dd2-B2, 72 h
[35] = Elimination half life in mouse infected with Plasmodium berghei at 10 mg/kg, po administered as single dose and measured for 24 hrs by LC-MS/MS analysis; type: ADME, organism-based; details: in vivo, read-out: beta t1/2 (converted)
Plasmodium falciparum [36] = experiment: Antiplasmodial activity against chloroquine-sensitive asexual blood stage Plasmodium falciparum 3D7 assessed as inhibition of parasite growth incubated for […] by HRP2-ELISA; type: functional, organism-based
[37] = Tmax in mouse infected with Plasmodium berghei at 30 mg/kg, po administered as single dose and measured for 24 hrs by LC-MS/MS analysis; type: ADME, organism-based; details: in vivo
[38] = AUC(0 to t) in mouse infected with Plasmodium berghei at 10 mg/kg, po administered as single dose and measured for 24 hrs by LC-MS/MS analysis; type: ADME, organism-based; design: time 24 hrs, dose 10 mg/kg, route po; details: in vivo
[39] = Chemical stability of compound in Tween20/ethanol/phosphate buffer at pH 2 assessed as drug degradation measured over 24 hrs; type: physicochemical; details: read-out: Drug degradation
[40] = Tmax in mouse infected with Plasmodium berghei at 10 mg/kg, po administered as single dose and measured for 24 hrs by LC-MS/MS analysis; type: ADME, organism-based; details: in vivo
[41] = Cytotoxicity against human HeLa cells assessed as inhibition of cell growth incubated for 24 hrs by neutral red dye based analysis; type: toxicity
[42] = Chemical stability of compound in Tween20/ethanol/phosphate buffer at pH 7.5 assessed as drug degradation measured over 24 hrs; type: physicochemical; details: read-out: Drug degradation

Chain of Voltage-gated inwardly rectifying potassium channel KCNH2 (Q12809 whole entry): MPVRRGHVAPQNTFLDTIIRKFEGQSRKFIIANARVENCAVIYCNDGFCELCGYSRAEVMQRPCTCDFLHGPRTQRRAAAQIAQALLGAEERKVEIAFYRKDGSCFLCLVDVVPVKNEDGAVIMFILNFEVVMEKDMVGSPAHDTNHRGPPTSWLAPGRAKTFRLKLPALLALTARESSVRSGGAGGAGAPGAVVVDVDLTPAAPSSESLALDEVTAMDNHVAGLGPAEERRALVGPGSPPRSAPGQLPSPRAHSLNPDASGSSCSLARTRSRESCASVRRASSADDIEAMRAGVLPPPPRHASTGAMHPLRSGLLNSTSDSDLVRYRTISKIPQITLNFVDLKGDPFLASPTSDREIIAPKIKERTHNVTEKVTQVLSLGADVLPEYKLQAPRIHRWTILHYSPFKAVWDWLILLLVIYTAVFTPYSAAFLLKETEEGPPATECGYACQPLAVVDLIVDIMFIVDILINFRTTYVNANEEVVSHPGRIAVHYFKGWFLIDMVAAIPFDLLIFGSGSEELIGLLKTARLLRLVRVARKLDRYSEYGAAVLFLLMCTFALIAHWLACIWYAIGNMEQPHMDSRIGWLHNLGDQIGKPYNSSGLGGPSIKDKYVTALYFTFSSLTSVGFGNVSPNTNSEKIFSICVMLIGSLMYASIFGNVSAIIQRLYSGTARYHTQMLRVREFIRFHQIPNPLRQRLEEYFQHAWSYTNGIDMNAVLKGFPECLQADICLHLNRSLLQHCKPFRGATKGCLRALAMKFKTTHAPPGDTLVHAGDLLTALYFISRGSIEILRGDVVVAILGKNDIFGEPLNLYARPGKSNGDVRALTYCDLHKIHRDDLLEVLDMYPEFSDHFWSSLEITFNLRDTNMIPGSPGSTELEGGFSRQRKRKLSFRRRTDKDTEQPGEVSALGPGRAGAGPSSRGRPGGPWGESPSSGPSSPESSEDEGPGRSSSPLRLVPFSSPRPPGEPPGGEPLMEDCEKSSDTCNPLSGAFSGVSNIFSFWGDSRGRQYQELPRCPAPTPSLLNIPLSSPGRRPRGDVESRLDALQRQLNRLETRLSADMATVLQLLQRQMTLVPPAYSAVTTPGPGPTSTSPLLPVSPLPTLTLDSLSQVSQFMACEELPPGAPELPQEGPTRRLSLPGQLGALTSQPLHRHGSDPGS

`COc1ccc(/N=C(\N)CC(O)c2cc3c(F)cc(F)cc3c3cc(C(F)(F)F)ccc23)cc1.Cl` (configuration not stated) gave a pIC50 (Plasmodium falciparum [1]) of 7.92, an MSD (Plasmodium berghei [2]) of 27 days and an Activity (Plasmodium berghei [3]) of 99.8%. It also gave an AUCt [4] of 783.1 ng·h/mL, a CLH [5] of 9 µL/min/mg and a fold change (FC) (Plasmodium falciparum [6]) of 3. The t1/2 [7] was 313 min, the inhibition (Plasmodium falciparum [8]) was “Active” and the AUC [9] was 199.7 ng·h/mL. The Activity (Plasmodium berghei [10]) was 99.9%, the Activity (Plasmodium berghei [11]) was 0% and the Tmax [12] was 60 min. For the same compound, the pIC50 (Plasmodium falciparum [13]) was 7.82, the pIC50 (Plasmodium falciparum [14]) was 8.08 and the IC50 at 24 h [15] was 4300 nM. For the same compound, the remaining at 40 min, 2 µM [16] was 86%, the Cmax [17] was 57.3 ng/mL and the pIC50 [18] was 6.72. It also gave a t1/2 [19] of 248 min, an IC50 at 24 h [20] of 36800 nM and an AUC [21] of 21.5 ng·h/mL. The Cmax [22] was 3.3 ng/mL, the MSD (Plasmodium berghei [23]) was 17 days and the inhibition (Plasmodium falciparum [24]) was “Active”. It also gave a half-life [25] of 7.58 min, a fold change (FC) (Plasmodium falciparum [26]) of 3 and a t1/2 [27] of 421 min. The AUC [28] was 848.1 ng·h/mL, the Cmax [29] was 23 ng/mL and the selectivity ratio [30] was 860. It also gave a half-life [31] of 4.18 min, an AUCt [32] of 20.4 ng·h/mL and an Activity (Plasmodium berghei [33]) of 99.9%. The pIC50 (Plasmodium falciparum [34]) was 7.82, the half-life [35] was 7.91 min and the pIC50 (Plasmodium falciparum [36]) was 8.30. The Tmax [37] was 60 min, the AUCt [38] was 192.1 ng·h/mL and the degraded at 24 h [39] was 0.1%. For the same compound, the Tmax [40] was 60 min, the IC50 at 24 h [41] was 46100 nM and the degraded at 24 h [42] was 1%.
